In publication PMC5215806 (Chemical Science, 2016) one finds Km data, which are given here for 2 molecules.

For one experiment, the system named is FzmM (His6-FzmM). The experiment in a line: steady-state kinetics of N-hydroxylation. The format is biochemical, Streptomyces sp. NRRL S-149. The note with it: read-out: Km (apparent); co-substrates O2, NADPH, FAD.
A further experiment relates to FzmQ (His6-FzmQ). The experiment in a line: spectrophotometric assay of CoA formation. The format is biochemical, Streptomyces sp. NRRL S-149. The conditions noted are these: read-out: Km (apparent); co-substrate acetyl-CoA.

The structures appear in SMILES notation.

The Km is the substrate concentration at which the rate is half of its maximum. For `N[C@@H](CC(=O)O)C(=O)O` [L-Asp], the Michaelis constant (Km) in the experiment with FzmM (His6-FzmM) amounted to 790 ± 70 µM. Consider `NNC(CC(=O)O)C(=O)O` (centres unmarked) [hydrazinosuccinate], for which the Michaelis constant (Km) with FzmQ (His6-FzmQ) came out at 4.2 ± 0.8 µM.
